Columns and labels:
[1] = system: breast cancer cell line MDA-MB-231; experiment: Alamar Blue cytotoxicity assay; type: cell-based; details: for fold less potent than ipomoeassin F: MDA-MB-231
[2] = system: MCF7 breast cancer cell line; experiment: Colorimetric MTT cytotoxicity assay; type: cell-based
[3] = system: A2780 human ovarian cancer cell line; experiment: Cytotoxicity of ipomoeassins A-F; type: cell-based; details: from Table 1 values
[4] = system: A2780 human ovarian cancer cell line; details: read-out: IC50 (nM) A2780; A2780 human ovarian cancer cells; cited from earlier work
[5] = system: human breast epithelial cell line MCF-10A; experiment: Alamar Blue cytotoxicity assay; type: cell-based; details: MCF-10A vs MDA-MB-231 / MCF7

C/C=C(\C)C(=O)O[C@@H]1[C@@H](O)[C@@H]2O[C@H]3[C@H](O[C@@H](CCCCC)CCCCOC(=O)CCC(=O)OC[C@@H](O2)[C@H]1OC(=O)/C=C/c1ccccc1)O[C@H](C)[C@H](OC(C)=O)[C@@H]3O [Analogue 25]
fold activity loss compared to 1 ([1]; MDA-MB-231 (printed MBA-BD-231)): 9 fold | fold activity loss compared to 1 [2]: 9 fold

C/C=C(\C)C(=O)O[C@@H]1[C@@H](O)[C@@H]2O[C@H]3[C@H](O[C@@H](CCC)CCCCC[C@H](OC(C)=O)C(=O)CCC(=O)OC[C@@H](O2)[C@H]1OC(=O)/C=C/c1ccccc1)O[C@H](C)[C@H](O)[C@@H]3O [Ipomoeassin E]
fold activity loss, R1 H to OAc (B vs. E) ([3]; A2780): 8 fold | IC50 [4]: 3300 nM

C/C=C(\C)C(=O)O[C@@H]1[C@@H](O)[C@@H]2O[C@H]3[C@H](O[C@@H](CCCCC)CCCCCOC(=O)CCC(=O)OC[C@@H](O2)[C@H]1OC(=O)/C=C/c1ccccc1)O[C@H](C)[C@H](OC(C)=O)[C@@H]3O [Analogue 1]
fold less potent than ipomoeassin F [1]: about 4 fold | fold less potent than ipomoeassin F [2]: ~2 fold

C/C=C(\C)C(=O)O[C@@H]1[C@@H](O)[C@@H]2O[C@H]3[C@H](O[C@@H](CCC)CCCCC[C@H](O)C(=O)CCC(=O)OC[C@@H](O2)[C@H]1OC(=O)/C=C/c1ccccc1)O[C@H](C)[C@H](OC(C)=O)[C@@H]3O [Ipomoeassin C]
fold activity difference between ipomoeassin C and ipomoeassin A/D [3]: up to 80 fold

C/C=C(\C)C(=O)O[C@@H]1[C@@H](O)[C@@H]2O[C@H]3[C@H](O[C@@H](CCCCC)CCCCCNC(=O)CCC(=O)OC[C@@H](O2)[C@H]1OC(=O)/C=C/c1ccccc1)O[C@H](C)[C@H](OC(C)=O)[C@@H]3O [Analogue 2]
selectivity between tumor and non-tumor cells [5]: slight selectivity towards MDA-MB-231 cells

C/C=C(\C)C(=O)O[C@@H]1[C@@H](O)[C@@H]2O[C@H]3[C@H](O[C@@H](CCCCC)C/C=C\CCOC(=O)CCC(=O)OC[C@@H](O2)[C@H]1OC(=O)/C=C/c1ccccc1)O[C@H](C)[C@H](OC(C)=O)[C@@H]3O [Analogue 24]
fold more potent than the E-counterpart 23 ([1]; breast cancer cell lines of Table 2 (MDA-MB-231, MCF7)): ~ 3 fold

C/C=C(\C)C(=O)O[C@@H]1[C@@H](O)[C@@H]2O[C@H]3[C@H](O[C@@H](CCC)CCCCC[C@H](OC(C)=O)C(=O)CCC(=O)OC[C@@H](O2)[C@H]1OC(=O)/C=C/c1ccccc1)O[C@H](C)[C@H](OC(C)=O)[C@@H]3O [Ipomoeassin D]
fold potency enhancement, R1 H to OAc (A vs. D) ([3]; A2780): up to 14 fold

C/C=C(\C)C(=O)O[C@@H]1[C@@H](O)[C@@H]2O[C@H]3[C@H](O[C@@H](CCCCC)CCCCCN(C)C(=O)CCC(=O)OC[C@@H](O2)[C@H]1OC(=O)/C=C/c1ccccc1)O[C@H](C)[C@H](OC(C)=O)[C@@H]3O [Analogue 21]
fold less potent than ipomoeassin F [1]: ≤ 2 fold | fold less potent than ipomoeassin F [2]: ≤ 2 fold
